Test: Western blot analysis for "B" compounds
Format: cell-based
Details: read-out: Traditional Western Degradation Potency (DC50)
In short: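 Target protein levels given as relative mean band intensity over GAPDH from scanned immunoblots. Lysates of treated cells in RIPA buffer, equalized by BCA, separated on 10% gels and transferred to PVDF.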

| Compound | DC50 |
| --- | --- |
| O=C1CCC(N2C(=O)c3cc4c(cc3C2=O)CN(C2CCN(CC3(F)CN(c5ccc([C@@H]6c7ccc(O)cc7CC[C@@H]6c6ccccc6)cc5)C3)CC2)C4)C(=O)N1 (stereo partly drawn) [Compound B73, 2-(2,6-dioxopiperidin-3-yl)-6-(1-((3-fluoro-1-(4-((1R,2S)-6-hydroxy-2-phenyl-1,2,3,4-tetrahydronaphthalen-1-yl)phenyl)azetidin-3-yl)methyl)piperidin-4-yl)-6,7-dihydropyrrolo[3,4-f]isoindole-1,3(2H,5H)-dione] | > 100 nM |
| O=C1CCC(N2C(=O)c3cc4c(cc3C2=O)CN(CC(=O)N2CCC(n3cc(-c5ccc([C@@H]6c7ccc(O)cc7CC[C@@H]6c6ccccc6)cc5)cn3)CC2)C4)C(=O)N1 (stereo partly drawn) [Compound B58, 2-(2,6-dioxopiperidin-3-yl)-6-(2-(4-(4-(4-((1R,2S)-6-hydroxy-2-phenyl-1,2,3,4-tetrahydronaphthalen-1-yl)phenyl)-1H-pyrazol-1-yl)piperidin-1-yl)-2-oxoethyl)-6,7-dihydropyrrolo[3,4-f]isoindole-1,3(2H,5H)-dione] | > 100 nM |
| O=C1CCC(N2C(=O)c3cc4c(cc3C2=O)CN(CC2CN(CC3CN(c5ccc([C@@H]6c7ccc(O)cc7CC[C@@H]6c6ccc(F)cc6)cc5)C3)C2)C4)C(=O)N1 (stereo partly drawn) [Compound B71, 2-(2,6-dioxopiperidin-3-yl)-6-((1-((1-(4-((1R,2S)-2-(4-fluorophenyl)-6-hydroxy-1,2,3,4-tetrahydronaphthalen-1-yl)phenyl)azetidin-3-yl)methyl)azetidin-3-yl)methyl)-6,7-dihydropyrrolo[3,4-f]isoindole-1,3(2H,5H)-dione] | > 100 nM |
| O=C1CCC(N2C(=O)c3cc4c(cc3C2=O)CN(CC(=O)N2CCC3(CC2)CN(C(=O)c2ccc([C@@H]5c6ccc(O)cc6CC[C@@H]5c5ccccc5)cc2)C3)C4)C(=O)N1 (stereo partly drawn) [Compound B291, 2-(2,6-dioxopiperidin-3-yl)-6-(2-(2-(4-((1R,2S)-6-hydroxy-2-phenyl-1,2,3,4-tetrahydronaphthalen-1-yl)benzoyl)-2,7-diazaspiro[3.5]nonan-7-yl)-2-oxoethyl)-6,7-dihydropyrrolo[3,4-f]isoindole-1,3(2H,5H)-dione] | > 100 nM |
| O=C1CCC(N2C(=O)c3cc4c(cc3C2=O)CN(Cc2cnc(N3CC(Oc5ccc([C@@H]6c7ccc(O)cc7CC[C@@H]6c6ccccc6)cc5)C3)cn2)C4)C(=O)N1 (stereo partly drawn) [Compound B104, 2-(2,6-dioxopiperidin-3-yl)-6-((5-(3-(4-((1R,2S)-6-hydroxy-2-phenyl-1,2,3,4-tetrahydronaphthalen-1-yl)phenoxy)azetidin-1-yl)pyrazin-2-yl)methyl)-6,7-dihydropyrrolo[3,4-f]isoindole-1,3(2H,5H)-dione] | > 100 nM |
| O=C1CCC(N2C(=O)c3cc4c(cc3C2=O)CN([C@H]2CC[C@@H](NC3CN(c5ccc([C@@H]6c7ccc(O)cc7CC[C@@H]6c6ccccc6)cc5)C3)CC2)C4)C(=O)N1 (stereo partly drawn) [Compound B102, 2-(2,6-dioxopiperidin-3-yl)-6-((1S,4s)-4-((1-(4-((1R,2S)-6-hydroxy-2-phenyl-1,2,3,4-tetrahydronaphthalen-1-yl)phenyl)azetidin-3-yl)amino)cyclohexyl)-6,7-dihydropyrrolo[3,4-f]isoindole-1,3(2H,5H)-dione] | > 100 nM |
| O=C1CCC(N2C(=O)c3cc4c(cc3C2=O)CN([C@H]2CC[C@H](NC3CN(c5ccc([C@@H]6c7ccc(O)cc7CC[C@@H]6c6ccccc6)cc5)C3)CC2)C4)C(=O)N1 (stereo partly drawn) [Compound B103, 2-(2,6-dioxopiperidin-3-yl)-6-((1R,4r)-4-((1-(4-((1R,2S)-6-hydroxy-2-phenyl-1,2,3,4-tctrahydronaphthalen-1-yl)phenyl)azetidin-3-yl)amino)cyclohexyl)-6,7-dihydropyrrolo[3,4-f]isoindole-1,3(2H,5H)-dione] | > 100 nM |
| 3-(6-((1S,4s)-4-(3-((4-((1R,2S)-6-hydroxy-2-phenyl-1,2,3,4- tetrahydronaphthalen-1-yl)phenyl)amino)azetidin-1- yl)cyclohexane-1-carbonyl)-1-oxo-3,5,6,7- tetrahydropyrrolo[3,4-f]isoindol-2(1H)-yl)piperidine-2,6-dione [Compound B116] | > 100 nM |
| O=C1CCC(N2C(=O)c3cc4c(cc3C2=O)CN(C(=O)c2ccc(CC(=O)N3CCCC(Oc5ccc([C@@H]6c7ccc(O)cc7CC[C@@H]6c6ccccc6)cc5)C3)cc2)C4)C(=O)N1 (stereo partly drawn) [Compound B16, 2-(2,6-dioxopiperidin-3-yl)-6-(4-(2-(3-(4-((1R,2S)-6-hydroxy-2-phenyl-1,2,3,4-tetrahydronaphthalen-1-yl)phenoxy)piperidin-1-yl)-2-oxoethyl)benzoyl)-6,7-dihydropyrrolo[3,4-f]isoindole-1,3(2H,5H)-dione] | 10 to 100 nM |
| O=C1CCC(N2C(=O)c3cc4c(cc3C2=O)CN(CC2(F)CCN(CC3CCN(c5ccc([C@@H]6c7ccc(O)cc7CC[C@@H]6c6ccccc6)cc5)CC3)CC2)C4)C(=O)N1 (stereo partly drawn) [Compound B270, 2-(2,6-dioxopiperidin-3-yl)-6-((4-fluoro-1-((1-(4-((1R,2S)-6-hydroxy-2-phenyl-1,2,3,4-tetrahydronaphthalen-1-yl)phenyl)piperidin-4-yl)methyl)piperidin-4-yl)methyl)-6,7-dihydropyrrolo[3,4-f]isoindole-1,3(2H,5H)-dione] | > 100 nM |

Further lines, results first:

| DC50 | Compound |
| --- | --- |
| 10 to 100 nM | O=C1CCC(N2Cc3cc4c(cc3C2=O)CN(C(=O)C2CCC(NC3CN(c5ccc([C@@H]6c7ccc(O)cc7CC[C@@H]6c6ccccc6)cc5)C3)CC2)C4)C(=O)N1 (stereo partly drawn) [Compound B108, 3-(6-(4-((1-(4-((1R,2S)-6-hydroxy-2-phenyl-1,2,3,4-tetrahydronaphthalen-1-yl)phenyl)azetidin-3-yl)amino)cyclohexane-1-carbonyl)-1-oxo-3,5,6,7-tetrahydropyrrolo[3,4-f]isoindol-2(1H)-yl)piperidine-2,6-dione] |
| > 100 nM | O=C1CCC(N2C(=O)c3cc4c(cc3C2=O)CN([C@H]2CC[C@H](NC3CCN(c5ccc([C@@H]6c7ccc(O)cc7CC[C@@H]6c6ccccc6)cc5)CC3)CC2)C4)C(=O)N1 (stereo partly drawn) [Compound B97, 2-(2,6-dioxopiperidin-3-yl)-6-((1R,4r)-4-((1-(4-((1R,2S)-6-hydroxy-2-phenyl-1,2,3,4-tetrahydronaphthalen-1-yl)phenyl)piperidin-4-yl)amino)cyclohexyl)-6,7-dihydropyrrolo[3,4-f]isoindole-1,3(2H,5H)-dione] |
| 10 to 100 nM | O=C1CCC(N2C(=O)c3cc4c(cc3C2=O)CN(C2CCC(CN3CCN(c5ccc([C@@H]6c7ccc(O)cc7CC[C@@H]6c6ccccc6)cc5)CC3)CC2)C4)C(=O)N1 (stereo partly drawn) [Compound B76, 2-(2,6-dioxopiperidin-3-yl)-6-(4-((4-(4-((1R,2S)-6-hydroxy-2-phenyl-1,2,3,4-tetrahydronaphthalen-1-yl)phenyl)piperazin-1-yl)methyl)cyclohexyl)-6,7-dihydropyrrolo[3,4-f]isoindole-1,3(2H,5H)-dione] |
| > 100 nM | O=C1CCC(N2C(=O)c3cc4c(cc3C2=O)CN(C2CC(C(=O)N3CCCC(Oc5ccc([C@@H]6c7ccc(O)cc7CC[C@@H]6c6ccccc6)cc5)C3)C2)C4)C(=O)N1 (mixture of isomers) [Compound B14, 2-(2,6-dioxopiperidin-3-yl)-6-(3-(3-(4-((1R,2S)-6-hydroxy-2-phenyl-1,2,3,4-tetrahydronaphthalen-1-yl)phenoxy)piperidine-1-carbonyl)cyclobutyl)-6,7-dihydropyrrolo[3,4-f]isoindole-1,3(2H,5H)-dione] |
| > 100 nM | CN(c1ccc([C@@H]2c3ccc(O)cc3CC[C@@H]2c2ccccc2)cc1)C1CN([C@H]2CC[C@H](C(=O)N3Cc4cc5c(cc4C3)C(=O)N(C3CCC(=O)NC3=O)C5=O)CC2)C1 (stereo partly drawn) [Compound B130, 2-(2,6-dioxopiperidin-3-yl)-6-((1R,4r)-4-(3-((4-((1R,2S)-6-hydroxy-2-phenyl-1,2,3,4-tetrahydronaphthalen-1-yl)phenyl)(methyl)amino)azetidin-1-yl)cyclohexane-1-carbonyl)-6,7-dihydropyrrolo[3,4-f]isoindole-1,3(2H,5H)-dione] |
| 10 to 100 nM | CN(C1CCC(C(=O)N2Cc3cc4c(cc3C2)C(=O)N(C2CCC(=O)NC2=O)C4)CC1)C1CCN(c2ccc([C@@H]3c4ccc(O)cc4CC[C@@H]3c3ccccc3)cc2)CC1 (stereo partly drawn) [Compound B201, 3-(6-(4-((1-(4-((1R,2S)-6-hydroxy-2-phenyl-1,2,3,4-tetrahydronaphthalen-1-yl)phenyl)piperidin-4-yl)(methyl)amino)cyclohexane-1-carbonyl)-1-oxo-3,5,6,7-tetrahydropyrrolo[3,4-f]isoindol-2(1H)-yl)piperidine-2,6-dione] |
| > 100 nM | O=C1CCC(N2C(=O)c3cc4c(cc3C2=O)CN(CC2CN(C(=O)C3CN(c5ccc([C@@H]6c7ccc(O)cc7CC[C@@H]6c6ccccc6)cc5)C3)C2)C4)C(=O)N1 (stereo partly drawn) [Compound B263, 2-(2,6-dioxopiperidin-3-yl)-6-((1-(1-(4-((1R,2S)-6-hydroxy-2-phenyl-1,2,3,4-tetrahydronaphthalen-1-yl)phenyl)azetidine-3-carbonyl)azetidin-3-yl)methyl)-6,7-dihydropyrrolo[3,4-f]isoindole-1,3(2H,5H)-dione] |
| > 100 nM | O=C1CCC(N2C(=O)c3cc4c(cc3C2=O)CN(C2CCC(NCC3CN(c5ccc([C@@H]6c7ccc(O)cc7CC[C@@H]6c6ccccc6)cc5)C3)CC2)C4)C(=O)N1 (stereo partly drawn) [Compound B101, 2-(2,6-dioxopiperidin-3-yl)-6-(4-(((1-(4-((1R,2S)-6-hydroxy-2-phenyl-1,2,3,4-tetrahydronaphthalen-1-yl)phenyl)azetidin-3-yl)methyl)amino)cyclohexyl)-6,7-dihydropyrrolo[3,4-f]isoindole-1,3(2H,5H)-dione] |
| > 100 nM | O=C1CCC(N2C(=O)c3cc4c(cc3C2=O)CN(C2CCC3(CC2)CCN(c2ccc([C@@H]5c6ccc(O)cc6CC[C@@H]5c5ccccc5)cc2)CC3)C4)C(=O)N1 (stereo partly drawn) [Compound B189, 2-(2,6-dioxopiperidin-3-yl)-6-(3-(4-((1R,2S)-6-hydroxy-2-phenyl-1,2,3,4-tetrahydronaphthalen-1-yl)phenyl)-3-azaspiro[5.5]undecan-9-yl)-6,7-dihydropyrrolo[3,4-f]isoindole-1,3(2H,5H)-dione] |

From patent US20260028354A1, “TETRAHYDRONAPHTHALENE DERIVATIVES AS ESTROGEN RECEPTOR DEGRADERS” (REGENT OF THE UNIVERSITY OF MICHIGAN, priority 2022, published 2026)
